Assay results as given in US8183201B2 (priority 2006, dated 2012).
Read-outs that look alike come from different tables or passages of the source.

Experiments:
[1] = system: ovariectomized (OVX) rats; conditions: rat, in vivo, po, 1.5 mg/kg
[2] = system: ovariectomized (OVX) mice; parameters: species or system ICR mice; conditions: mouse, in vivo, po, 1.5 mg/kg
[3] = system: osteoclast precursors (bone marrow hematopoietic cells); format: cell-based, SD rats; conditions: read-out: IC50 Osteoclastogenesis
[4] = target: T1, integrin α5β1 (Homo sapiens, UniProt P05556+P08648); format: cell-based
T1 construct: Human erythroleukemia K562 cells were purchased from ATCC; host or cells: K562

[5] = target: T2, integrin αIIbβ3 (Homo sapiens, UniProt P05106+P08514); format: cell-based
T2 construct: host or cells: CHO (CHO-αIIbβ3)

[6] = target: platelet aggregation (Homo sapiens, UniProt P05106+P08514); format: cell-based
[7] = mouse, in vivo
[8] = target: integrin αvβ3 (UniProt P05106+P06756); format: cell-based
Sequence of integrin αvβ3 (P06756 31-1048): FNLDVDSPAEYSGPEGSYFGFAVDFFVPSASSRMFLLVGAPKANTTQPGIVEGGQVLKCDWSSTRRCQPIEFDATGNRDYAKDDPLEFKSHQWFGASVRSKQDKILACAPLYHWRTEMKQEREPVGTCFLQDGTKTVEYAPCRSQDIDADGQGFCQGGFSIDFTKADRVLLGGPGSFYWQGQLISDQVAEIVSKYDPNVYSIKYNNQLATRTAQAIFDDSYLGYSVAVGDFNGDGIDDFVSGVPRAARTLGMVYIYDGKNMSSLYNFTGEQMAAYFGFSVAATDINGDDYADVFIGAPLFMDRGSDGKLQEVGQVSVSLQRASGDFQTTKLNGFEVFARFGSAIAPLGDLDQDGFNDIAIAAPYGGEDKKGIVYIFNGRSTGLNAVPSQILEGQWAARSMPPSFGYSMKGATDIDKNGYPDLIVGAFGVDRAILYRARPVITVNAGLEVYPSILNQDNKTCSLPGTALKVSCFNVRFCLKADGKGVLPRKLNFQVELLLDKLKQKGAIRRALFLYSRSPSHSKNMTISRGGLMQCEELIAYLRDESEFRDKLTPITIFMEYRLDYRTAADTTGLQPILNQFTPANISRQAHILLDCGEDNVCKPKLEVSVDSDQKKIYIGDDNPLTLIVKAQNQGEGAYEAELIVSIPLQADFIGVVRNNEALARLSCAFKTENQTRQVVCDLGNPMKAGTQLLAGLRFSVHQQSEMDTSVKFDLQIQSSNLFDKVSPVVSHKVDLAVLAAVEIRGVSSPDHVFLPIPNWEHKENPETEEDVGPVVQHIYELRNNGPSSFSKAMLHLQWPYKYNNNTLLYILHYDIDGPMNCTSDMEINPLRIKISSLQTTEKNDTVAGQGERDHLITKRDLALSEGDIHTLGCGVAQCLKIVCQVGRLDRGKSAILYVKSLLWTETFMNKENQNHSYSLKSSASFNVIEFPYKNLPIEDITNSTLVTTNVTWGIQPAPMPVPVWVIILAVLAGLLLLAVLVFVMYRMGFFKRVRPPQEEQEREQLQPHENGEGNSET
Sequence of integrin αvβ3 (P05106 27-788): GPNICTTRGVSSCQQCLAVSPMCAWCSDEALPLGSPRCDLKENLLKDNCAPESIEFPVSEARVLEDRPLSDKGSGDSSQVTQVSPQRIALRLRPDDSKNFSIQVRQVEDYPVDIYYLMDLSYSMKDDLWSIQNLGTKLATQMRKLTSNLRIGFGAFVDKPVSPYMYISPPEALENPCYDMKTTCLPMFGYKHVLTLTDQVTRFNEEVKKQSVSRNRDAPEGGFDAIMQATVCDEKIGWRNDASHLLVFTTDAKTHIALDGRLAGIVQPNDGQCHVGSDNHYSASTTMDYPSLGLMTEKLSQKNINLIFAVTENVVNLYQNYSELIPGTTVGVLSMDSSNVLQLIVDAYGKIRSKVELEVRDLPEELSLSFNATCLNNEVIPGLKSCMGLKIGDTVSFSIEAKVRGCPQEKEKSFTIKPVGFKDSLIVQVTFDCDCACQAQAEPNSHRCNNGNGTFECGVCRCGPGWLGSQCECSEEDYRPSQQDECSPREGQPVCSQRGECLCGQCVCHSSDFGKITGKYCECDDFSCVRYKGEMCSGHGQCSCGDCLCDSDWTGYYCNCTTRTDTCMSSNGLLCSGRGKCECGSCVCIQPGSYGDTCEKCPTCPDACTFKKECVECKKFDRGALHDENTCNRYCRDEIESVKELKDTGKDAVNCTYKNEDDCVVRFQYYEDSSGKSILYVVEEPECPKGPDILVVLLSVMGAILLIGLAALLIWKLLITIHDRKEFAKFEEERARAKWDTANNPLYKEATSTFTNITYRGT

T1 sequence (P08648 42-894 limits assumed): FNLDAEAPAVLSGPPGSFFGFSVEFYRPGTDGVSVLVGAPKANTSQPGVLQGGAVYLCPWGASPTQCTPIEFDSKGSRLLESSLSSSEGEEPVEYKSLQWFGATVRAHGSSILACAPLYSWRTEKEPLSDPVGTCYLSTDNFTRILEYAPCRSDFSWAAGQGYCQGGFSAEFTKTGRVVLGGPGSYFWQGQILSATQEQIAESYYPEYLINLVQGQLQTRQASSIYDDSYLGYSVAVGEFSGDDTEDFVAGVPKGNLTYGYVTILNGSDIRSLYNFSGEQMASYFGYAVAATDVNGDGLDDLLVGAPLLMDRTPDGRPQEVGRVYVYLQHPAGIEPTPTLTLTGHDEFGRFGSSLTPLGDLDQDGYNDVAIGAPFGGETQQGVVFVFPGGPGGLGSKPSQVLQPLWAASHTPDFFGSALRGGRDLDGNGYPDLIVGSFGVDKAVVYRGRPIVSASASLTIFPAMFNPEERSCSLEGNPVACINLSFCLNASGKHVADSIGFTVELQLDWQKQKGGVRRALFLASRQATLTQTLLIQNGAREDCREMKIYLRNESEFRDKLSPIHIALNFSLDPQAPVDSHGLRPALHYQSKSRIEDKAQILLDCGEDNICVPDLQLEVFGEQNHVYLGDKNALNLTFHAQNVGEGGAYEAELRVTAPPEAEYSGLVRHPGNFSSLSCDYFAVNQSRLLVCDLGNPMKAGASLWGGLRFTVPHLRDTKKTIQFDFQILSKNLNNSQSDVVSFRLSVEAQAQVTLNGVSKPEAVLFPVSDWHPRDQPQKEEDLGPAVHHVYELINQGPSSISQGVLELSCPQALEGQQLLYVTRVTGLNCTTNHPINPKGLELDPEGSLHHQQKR
T1 sequence (P08648 895-1049 partner limits assumed): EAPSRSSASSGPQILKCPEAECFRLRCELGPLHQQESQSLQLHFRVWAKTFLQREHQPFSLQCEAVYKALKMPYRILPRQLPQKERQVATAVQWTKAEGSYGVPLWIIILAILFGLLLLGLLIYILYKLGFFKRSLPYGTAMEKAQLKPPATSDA
T1 sequence (P05556 21-798): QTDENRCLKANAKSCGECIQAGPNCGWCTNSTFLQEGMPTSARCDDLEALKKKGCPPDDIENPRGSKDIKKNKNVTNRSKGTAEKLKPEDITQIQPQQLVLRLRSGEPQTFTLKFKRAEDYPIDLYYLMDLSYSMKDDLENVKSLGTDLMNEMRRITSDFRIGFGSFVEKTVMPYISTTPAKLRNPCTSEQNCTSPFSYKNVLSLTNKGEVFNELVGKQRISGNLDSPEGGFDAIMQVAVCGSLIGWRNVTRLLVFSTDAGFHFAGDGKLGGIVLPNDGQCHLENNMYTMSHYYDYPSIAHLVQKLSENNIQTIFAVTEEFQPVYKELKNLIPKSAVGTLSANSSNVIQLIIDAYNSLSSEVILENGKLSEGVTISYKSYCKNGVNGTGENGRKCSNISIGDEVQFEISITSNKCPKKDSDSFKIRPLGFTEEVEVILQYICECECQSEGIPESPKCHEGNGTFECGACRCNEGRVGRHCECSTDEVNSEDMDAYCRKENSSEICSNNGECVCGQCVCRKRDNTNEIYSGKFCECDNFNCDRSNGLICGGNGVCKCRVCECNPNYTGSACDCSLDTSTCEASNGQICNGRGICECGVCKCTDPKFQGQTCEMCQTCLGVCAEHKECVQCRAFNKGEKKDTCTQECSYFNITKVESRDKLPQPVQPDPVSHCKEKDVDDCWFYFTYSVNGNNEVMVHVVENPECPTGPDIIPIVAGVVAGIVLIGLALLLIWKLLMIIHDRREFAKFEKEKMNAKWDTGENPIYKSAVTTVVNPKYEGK

Molecule	BMC [2]	BMD [2]	C-terminal telopeptide of COL(1)α1 chain [2]	IC50 [3]	further results
NCCCC(O)(P(=O)(O)O)P(=O)(O)O [Alendronate, alendronate, reference compound]					ovariectomy-induced increase in osteoclast activity (serum C-terminal telopeptide of type-I collagen) [1]: reversed the ovariectomy-induced increase in osteoclast activity
ARGDDL: rhodostomin variant with RGD motif ^48Ala-Arg-Gly-Asp-Asp-Leu^53, SEQ ID NO: 32	0.624 ± 0.007 g	0.093 ± 0.001 g/cm^2	389 ± 16.4 ng/mL	0.00802 µM	
PGP: rhodostomin variant having a RGD motif variant ^48PRGDGP^53, SEQ ID NO: 42					IC50 ([4]; read-out: IC50 α5β1): 4 µM; IC50 ([4]; read-out: IC50 α5β1/Fn): 3.46 µM; IC50 ([5]; read-out: IC50 αIIbβ3): 0.5 µM; IC50 ([5]; read-out: IC50 αllbβ3/Fg): 2.59 µM; IC50 [6]: 0.283 µM
PRGDDL: rhodostomin variant with RGD motif ^48Pro-Arg-Gly-Asp-Asp-Leu^53, SEQ ID NO: 33				0.00315 µM	
PRLDDL: rhodostomin variant with RGD motif ^48Pro-Arg-Leu-Asp-Asp-Leu^53, SEQ ID NO: 37	0.563 ± 0.056 g	0.091 ± 0.002 g/cm^2	410 ± 25.1 ng/mL		
RID: rhodostomin variant with RGD motif ^48Pro-Arg-Ile-Asp-Met-Pro^53, SEQ ID NO: 39	0.622 ± 0.004 g	0.091 ± 0.001 g/cm^2	391 ± 12 ng/mL	0.00582 µM	
rhodostomin [reference compound]	0.619 ± 0.006 g	0.090 ± 0.001 g/cm^2	397 ± 13.6 ng/mL	0.00552 µM	effect on tail bleeding (clotting) time [7]: pronounced effect in prolonging the clotting time; IC50 ([5]; read-out: IC50 αIIbβ3): 0.021 µM; IC50 ([5]; read-out: IC50 αllbβ3/Fg): 0.021 µM; IC50 ([8]; read-out: IC50 αvβ3): 0.013 µM; IC50 ([8]; read-out: IC50 αvβ3/Fg): 0.013 µM; IC50 [6]: 0.083 µM
